Kd data for one molecule are collected here from PMC3492795 (International Journal of Biological Sciences, 2012).

In the experiment the target is T1, LXRβ (Homo sapiens, UniProt P55055).
T1 sequence (P55055 222-460 limits assumed): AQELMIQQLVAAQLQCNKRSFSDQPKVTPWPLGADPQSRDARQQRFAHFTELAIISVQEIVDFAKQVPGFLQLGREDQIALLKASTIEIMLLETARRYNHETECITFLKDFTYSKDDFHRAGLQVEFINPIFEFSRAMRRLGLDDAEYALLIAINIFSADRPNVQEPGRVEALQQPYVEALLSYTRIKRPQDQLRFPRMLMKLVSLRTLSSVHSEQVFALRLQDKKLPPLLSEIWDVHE
The experiment can be described thus: SPR. It counts as binding.

In turn, `O=C(O)c1cc(O)c2c(c1)C(=O)c1cccc(O)c1C2=O` [RH, 4,5-dihydroxyanthraquinone-2-carboxylic acid] gave a Kd of 32 µM.
